Assay results taken from patent publication US8653056B2, “Method of preparation of a soluble formulation of water-insoluble pentacyclic and tetracyclic terpenoids, a soluble formulation of a pentacyclic or tetracyclic terpenoid and a pharmaceutical composition containing this soluble formulation” (Univerzita Karlova V Praze, Prirodovedecka Fakulta, priority 2006, dated 2014).

Assays:
[1] = Concentration of dissolved triterpenoid in the aqueous cyclodextrin solution (HPLC-ESI MS); format: physicochemical; conditions: 2-hydroxypropyl-γ-cyclodextrin, 50° C.
Description: (§1) Into the resulting colourless, viscous solution, soluble triterpene derivative (1.50 g) is added at once and the mixture is again vigorously stirred at the temperature of 50° C. […] After the triterpenoid is completely dissolved, the resulting clear solution is cooled to room temperature, filtered with a syringe filter (hydrophilic, pore size 0.22 μm) in order to be sterile and is placed in a refrigerator.
as §1, with “Method B: In a mixture of water (14.0 ml) and propylene glycol (6.0 ml), 2-hydroxypropyl-γ-cyklodextrin (7.00 g) is dissolved at the temperature of 50° C. under vigorous stirring. Into” for “Into”, “derivate (1.00” for “derivative (1.50”, “and” for “and the mixture”
Analytic Determination of the Concentration of Dissolved Triterpenoids in the Application Form and in Plasma Samples
(§2) HPLC-ESI MS technique was used or the determination of the concentration of dissolved triterpenoids. The samples were measured in one analytical batch with calibration solutions and blind control. The sample for the measurement was prepared from 50 μl of aqueous solution containing the inclusion compound by dilution with methanol to the volume of 10 ml. Subsequently, 10 μl of the sample solution after the first dilution is further diluted to 1 ml by the mobile phase. The blind control was obtained from 50 μl of pre-prepared aqueous solution of 2-hydroxypropyl-γ-cyklodextrin by dilution with methanol to 10 ml. Subsequently, 10 μl of the blind control solution after the first dilution is further diluted to 1 ml by methanol. Stock solutions of standards (concentration 0.2 mg/ml) were prepared by weighing 2.00 mg of analyte to 10 ml graduated flask and dissolution in methanol. The calibration samples were then prepared by dilution of the stock solution with mobile phase (0.4 μg/ml resp. 4 μg/ml).
The concentration was determined by comparison with standard and calculated to the original solution containing the inclusion compound.

[2] = Bioavailability and pharmacokinetic profile at oral administration to laboratory mice; format: in vivo, outbred mice CD-1; conditions: intragastric single dose 200 μl, soluble cyclodextrin formulation
Description: Determination of Bioavailability and Pharmacokinetic Profile at Oral Administration of the Compounds to Laboratory Mice
Soluble cyclodextrin formulations of terpenoid compounds, prepared in accordance with the aforementioned methods A or B, were administered without dilution to outbred mice CD-1 intragastrically (200 μl in a single dose) as aqueous solutions by injection syringe equipped with a gastric tube. Insoluble compounds were administered intragastrically as well (200 μl in a single dose), but in the form of aqueous suspensions in 0.5-1% carboxymethyl cellulose. In time intervals 2, 4, 6, 8, 12 and 24 h, blood was taken from the mice, the blood was centrifuged and the obtained plasma was subsequently analysed by HPLC-ESI MS technique.
as §2
The analysis was carried out at ODS Hypersil 125×2.1 mm, 5 um, SN 0745415X, Thermo EC column, ODS 4.0×3.0 mm precolumn, Phenomenex, mobile phase A—100 mmol/L aqueous solution of ammonium formate, pH is adjusted to 5 by formic acid, B—100 mmol/L methanolic solution of ammonium formate, column temperature: 25° C., linear gradient or isocratic elution, injected volume 30 μl. The concentration was determined by comparison with standard and calculated to the original solution containing the inclusion compound.

[3] = solution method A: water, saturated sodium hydrogencarbonate solution, ethanol

Structure (SMILES)	Conc. of dissolved substance [1, 3]	oral availability [2]	Conc. of dissolved substance ([1]; solution method B: water, propylene glycol)
C=C(C)[C@@H]1CC[C@]2(C(=O)OCC)CC[C@]3(C)[C@H](CC[C@@H]4[C@@]5(C)CC[C@H](OC(=O)CCC(=O)O)C(C)(C)[C@@H]5CC[C@]43C)[C@@H]12 [2b]	45000 µg/mL	prove oral availability	–
C=C(C=O)[C@@H]1CC[C@]2(C(=O)OCC)CC[C@]3(C)[C@H](CC[C@@H]4[C@@]5(C)CC[C@H](OC(=O)CCC(=O)O)C(C)(C)[C@@H]5CC[C@]43C)[C@@H]12 [3b]	55000 µg/mL	prove oral availability	–
C=C(C)[C@@H]1CC[C@]2(C(=O)OCC(=O)O)CC[C@]3(C)[C@H](CC[C@@H]4[C@@]5(C)Cc6nccnc6C(C)(C)[C@@H]5CC[C@]43C)[C@@H]12 [6a]	56000 µg/mL	prove oral availability	–
CC(C)C1=C2[C@H]3CC[C@@H]4[C@@]5(C)CC[C@H](OC(=O)CC(C)(C)C(=O)O)C(C)(C)[C@@H]5CC[C@@]4(C)[C@]3(C)CC[C@@]2(C(=O)O)CC1=O [4t]	49000 µg/mL	prove oral availability	–
CCOC(=O)[C@@]12CC[C@]3(C)[C@H](CC[C@@H]4[C@@]5(C)CC[C@H](O[C@@H]6O[C@H](CO)[C@@H](O)[C@H](O)[C@H]6O)C(C)(C)[C@@H]5CC[C@]43C)C1=C(C(C)C)C(=O)C2 [4i]	–	prove oral availability	56000 µg/mL
